From US20240417764A1, “METHODS FOR THE PRODUCTION OF TRYPTOPHANS, TRYPTAMINES, INTERMEDIATES, SIDE PRODUCTS AND DERIVATIVES” (priority 2021, published 2024)

Tests used:
[1] = molecular target: T1, endogenous Escherichia coli tryptophan synthase beta subunit (TrpB) (Escherichia coli, UniProt P0A879); assay: TrpB substrate flexibility, in vivo conversion of substituted indoles to tryptophans; format: cell-based; conditions: sampled at 24 h
T1 construct: Yield for production of tryptophan derivatives by native E. coli TrpB from indole derivatives; endogenous in cells; host or cells: E. coli BL21 Star (DE3) carrying pETM6-SDM2x (empty vector for the TrpB-alone study)
Text: (§1) Four previously constructed BL21 Star™ (DE3) cell lines with pETM6-SDM2x plasmid backbones were used, each with endogenous Escherichia coli (E. coli) tryptophan synthase beta subunit (TrpB); (1) no gene insert (empty vector), (2) PsiD gene insert with T7 promoter, (3) PsiD-PsiK gene insert with C4 promoter in operon configuration (pNor, Norbaeocystin Production Strain) (Adams et al., 2022), and (4) PsiD-PsiK-PsiM gene insert with H10 promoter in operon configuration (pSilo16, Psilocybin Production Strain; See WO 2021/086513) (Adams et al., 2019). For the PsiD transcriptional optimization study, each of the nine previously described library members were used, in lieu of the strains above. Overnight cultures were grown in Andrew's Magic Media (AMM) without MOPS, appropriate antibiotics for plasmid retention, and were inoculated from freezer stocks. Experimental cultures were incubated in covered 48-well plates at 37° C. in a shaking incubator. AMM media consistent with above was inoculated at 2% final volume of respective overnight culture and 2 mL aliquoted to each well. Indole derivatives were added to each well, except negative control, at 100 mg/L using 5 uL from a 40 mg/mL stock in EtOH. 4-Nitroindole at 13.3 mg/mL in EtOH was added using 15 uL due to solubility limitations. Cultures were induced at 2 hours using 1 mM ITPG. Cultures were sampled at 24 hours and subjected to LC-MS analysis as described below. Cultures with serine added were identical to those without, except for adding 4.5 g/L of serine prior to inoculation.
Without commercially available standards for many of these compounds absolute quantification of enzymatic products is not possible. Peak areas from one substituted indole could not be compared directly to peak areas from another substituted indole due to significant differences in extinction coefficients. Relative quantification was performed by comparing product UV 280 nm peak areas from HPLC analysis (mAU*min) to that of the corresponding substituted indole. TrpB proficiencies with and without serine were calculated by dividing the tryptophan product peak areas by the total peak areas from the indole and tryptophan peaks. Tryptophan and indole peak areas were determined from duplicate samples with indole and subtraction of any time-correlated peak areas found in the samples without indole addition. Any other indole related peak areas found in indole samples were included in the denominator. Indole related peaks were defined as peaks found in indole samples, but absent from samples without indole addition. Similar calculations were performed for PsiD proficiencies where tryptamine peak areas were divided by the total area of associated tryptamine and tryptophan peaks. Indole utilization was also calculated for PsiD proficiencies where the remaining indole peak areas were divided by the initial peak areas.

P. cubensis PsiD = molecular target: T2, P. cubensis PsiD (Psilocybe cubensis, UniProt P0DPA6, L22F); assay: PsiD substrate flexibility, in vivo decarboxylation of substituted tryptophans to tryptamines; format: cell-based, Escherichia coli; conditions: in vivo in E. coli expressing PsiD, HPLC/LCMS detection
T2 construct: expressed in transfected cells; host or cells: E. coli BL21 Star (DE3); PsiD insert with the T7 promoter, or promoter/backbone library members, or pNor and pSilo16
Text: as §1, with “Indole derivatives were added to each well, except negative control, at 100 mg/L using 5 uL from a 40 mg/mL stock in EtOH. 4-Nitroindole at 13.3 mg/mL in EtOH was added using 15 uL due to solubility limitations. Cultures were induced at 2 hours using 1 mM ITPG. Cultures were sampled at 24 hours and subjected to LC-MS analysis as described below. Cultures with serine added were identical to those without, except for adding 4.5 g/L of serine prior to inoculation.” left out
Without commercially available standards for many of these compounds absolute quantification of enzymatic products is not possible. […] Relative quantification was performed by comparing product UV 280 nm peak areas from HPLC analysis (mAU*min) to that of the corresponding substituted indole. TrpB proficiencies with and without serine were calculated by dividing the tryptophan product peak areas by the total peak areas from the indole and tryptophan peaks. Tryptophan and indole peak areas were determined from duplicate samples with indole and subtraction of any time-correlated peak areas found in the samples without indole addition. […] Indole utilization was also calculated for PsiD proficiencies where the remaining indole peak areas were divided by the initial peak areas.
PsiD substrate flexibility was evaluated jointly in vivo with TrpB, such that if indoles were not sufficiently processed by TrpB, then PsiD activity could not be evaluated. […]

E. coli BL21 Star (DE3) = assay: Culture growth of E. coli production host supplemented with indole derivatives; format: cell-based, Escherichia coli; conditions: indole derivative 100 mg/L in 48-well culture, 37 C, compared visually with other indoles
Text: as §1
Other indoles may have slowed cell growth, but the differences were not easily distinguishable visually as OD600 reading were not taken for every sample.

[2] = without supplemental serine, indole 100 mg/L, tryptophan peak area / total indole-related peak areas (UV 280 nm)
[3] = with supplemental serine 4.5 g/L

T1 sequence (P0A877 whole entry): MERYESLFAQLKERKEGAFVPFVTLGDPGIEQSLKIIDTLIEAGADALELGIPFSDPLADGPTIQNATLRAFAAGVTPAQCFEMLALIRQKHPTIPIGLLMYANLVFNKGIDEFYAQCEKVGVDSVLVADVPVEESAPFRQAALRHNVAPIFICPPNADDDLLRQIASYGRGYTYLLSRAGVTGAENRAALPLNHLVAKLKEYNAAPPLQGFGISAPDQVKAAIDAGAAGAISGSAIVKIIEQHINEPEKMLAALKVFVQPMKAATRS
T1 sequence (P0A879 2-397): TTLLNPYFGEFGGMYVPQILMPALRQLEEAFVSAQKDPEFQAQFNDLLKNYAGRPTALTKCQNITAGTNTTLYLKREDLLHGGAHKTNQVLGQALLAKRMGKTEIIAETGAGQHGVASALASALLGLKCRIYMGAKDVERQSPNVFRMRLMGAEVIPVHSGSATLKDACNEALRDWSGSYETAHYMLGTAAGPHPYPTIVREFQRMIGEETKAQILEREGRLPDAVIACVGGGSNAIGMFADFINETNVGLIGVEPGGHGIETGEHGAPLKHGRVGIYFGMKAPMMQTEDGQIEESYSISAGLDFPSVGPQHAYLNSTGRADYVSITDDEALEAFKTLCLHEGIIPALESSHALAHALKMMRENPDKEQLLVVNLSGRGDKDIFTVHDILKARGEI
T2 sequence (P0DPA6 whole entry, stated change not applied): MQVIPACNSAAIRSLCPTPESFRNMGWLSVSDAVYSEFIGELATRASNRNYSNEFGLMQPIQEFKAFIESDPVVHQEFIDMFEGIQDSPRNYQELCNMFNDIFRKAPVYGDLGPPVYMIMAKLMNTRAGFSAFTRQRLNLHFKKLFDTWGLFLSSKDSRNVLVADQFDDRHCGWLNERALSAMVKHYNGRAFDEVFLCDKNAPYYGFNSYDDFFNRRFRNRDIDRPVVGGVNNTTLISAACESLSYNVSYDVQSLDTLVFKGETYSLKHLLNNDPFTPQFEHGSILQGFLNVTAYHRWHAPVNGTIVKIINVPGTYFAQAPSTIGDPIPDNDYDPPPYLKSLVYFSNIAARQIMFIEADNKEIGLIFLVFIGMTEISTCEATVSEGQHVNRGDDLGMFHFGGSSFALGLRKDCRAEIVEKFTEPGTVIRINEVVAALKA

| Compound | TrpB proficiency (class) [1, 2] | TrpB proficiency [1, 3] | culture growth retardation (toxicity effects of the indole derivatives) (E. coli BL21 Star (DE3)) | other results |
| --- | --- | --- | --- | --- |
| Clc1cc2ccccc2[nH]1 [2-chloroindole] | moderate (35-65%) or low proficiency (5-35%) | – | – | – |
| N[C@@H](Cc1c(Cl)[nH]c2ccccc12)C(=O)O [2-chlorotryptophan] | – | – | – | PsiD conversion to tryptamine product (P. cubensis PsiD): neither tryptamine product was observed |
| Cc1cc2ccccc2[nH]1 [2-methylindole] | – | 100% | – | PsiD conversion to tryptamine product (P. cubensis PsiD): no tryptamine product could be detected |
| Cc1[nH]c2ccccc2c1C[C@H](N)C(=O)O [2-methyltryptophan] | – | – | – | PsiD conversion to tryptamine product (P. cubensis PsiD): neither tryptamine product was observed |
| Nc1cccc2[nH]ccc12 [4-aminoindole] | moderate (35-65%) or low proficiency (5-35%) | 23% | significant culture growth retardation | – |
| Brc1cccc2[nH]ccc12 [4-bromoindole] | moderate (35-65%) or low proficiency (5-35%) | – | significant culture growth retardation | – |
| Clc1cccc2[nH]ccc12 [4-chloroindole] | moderate (35-65%) or low proficiency (5-35%) | – | significant culture growth retardation | – |
| Fc1cccc2[nH]ccc12 [4-fluoroindole] | moderate (35-65%) or low proficiency (5-35%) | 100% | significant culture growth retardation | TrpB proficiency [1, 2]: 27% |
| Oc1cccc2[nH]ccc12 [4-hydroxyindole] | – | 100% | – | – |
| Ic1cccc2[nH]ccc12 [4-iodoindole] | moderate (35-65%) or low proficiency (5-35%) | – | significant culture growth retardation | – |
| COc1cccc2[nH]ccc12 [4-methoxyindole] | moderate (35-65%) or low proficiency (5-35%) | – | – | – |
| Cc1cccc2[nH]ccc12 [4-methylindole] | moderate (35-65%) or low proficiency (5-35%) | 93% | significant culture growth retardation | TrpB proficiency [1, 2]: 22% |
| Brc1ccc2[nH]ccc2c1 [5-bromoindole] | – | – | significant culture growth retardation | – |
| Clc1ccc2[nH]ccc2c1 [5-chloroindole] | – | – | significant culture growth retardation | – |
| Fc1ccc2[nH]ccc2c1 [5-fluoroindole] | moderate (35-65%) or low proficiency (5-35%) | – | significant culture growth retardation | – |
| Oc1ccc2[nH]ccc2c1 [5-hydroxyindole] | moderate (35-65%) or low proficiency (5-35%) | – | – | – |
| Ic1ccc2[nH]ccc2c1 [5-iodoindole] | – | – | significant culture growth retardation | – |

| Compound | TrpB proficiency (class) [1, 2] | TrpB proficiency [1, 3] | culture growth retardation (toxicity effects of the indole derivatives) (E. coli BL21 Star (DE3)) | other results |
| --- | --- | --- | --- | --- |
| COc1ccc2[nH]ccc2c1 [5-methoxyindole] | moderate (35-65%) or low proficiency (5-35%) | – | – | – |
| Cc1ccc2[nH]ccc2c1 [5-methylindole] | moderate (35-65%) or low proficiency (5-35%) | – | – | – |
| Brc1ccc2cc[nH]c2c1 [6-bromoindole] | moderate (35-65%) or low proficiency (5-35%) | – | significant culture growth retardation | – |
| Clc1ccc2cc[nH]c2c1 [6-chloroindole] | moderate (35-65%) or low proficiency (5-35%) | – | significant culture growth retardation | – |
| Fc1ccc2cc[nH]c2c1 [6-fluoroindole] | moderate (35-65%) or low proficiency (5-35%) | – | significant culture growth retardation | – |
| Oc1ccc2cc[nH]c2c1 [6-hydroxyindole] | – | 3% | – | – |
| Ic1ccc2cc[nH]c2c1 [6-iodoindole] | moderate (35-65%) or low proficiency (5-35%) | – | significant culture growth retardation | – |
| COc1ccc2cc[nH]c2c1 [6-methoxyindole] | moderate (35-65%) or low proficiency (5-35%) | – | – | – |
| O=[N+]([O-])c1ccc2cc[nH]c2c1 [6-nitroindole] | – | – | significant culture growth retardation | – |
| Nc1cccc2cc[nH]c12 [7-aminoindole] | moderate (35-65%) or low proficiency (5-35%) | – | – | – |
| Brc1cccc2cc[nH]c12 [7-bromoindole] | – | 100% | – | – |
| N#Cc1cccc2cc[nH]c12 [7-cyanoindole] | moderate (35-65%) or low proficiency (5-35%) | – | – | – |
| Fc1cccc2cc[nH]c12 [7-fluoroindole] | moderate (35-65%) or low proficiency (5-35%) | 95% | significant culture growth retardation | TrpB proficiency [1, 2]: 45% |
| Oc1cccc2cc[nH]c12 [7-hydroxyindole] | – | 100% | – | – |
| Ic1cccc2cc[nH]c12 [7-iodoindole] | – | 100% | – | – |
| COc1cccc2cc[nH]c12 [7-methoxyindole] | – | 100% | – | – |
| Cc1cccc2cc[nH]c12 [7-methylindole] | – | 100% | – | – |
